# From patent US20240245677A1, “SELECTED COMPOUNDS FOR TARGETED DEGRADATION OF BRD9” (C4 THERAPEUTICS, INC., priority 2021, published 2024)
# Values joined by “and” are separate entries in the source; they are usually repeats but may differ in a detail not shown here. Equal entries are not always repeated. Where two headings read alike, the source gives them in different places.
# Experiments:
# [1] = Crystallization from hot saturated solutions by slow cooling; assay type: physicochemical; conditions: for Comments / XRPD: hot saturated solution
# Procedure: Samples with no precipitates were put in −20° C. freezer for crystallization. Precipitates were collected by centrifuged. Solid parts (wet cakes) were investigated by XRPD.
# [2] = Pharmacokinetic study in male CD1 mice; assay type: in vivo, mouse; conditions: for concentration at 0.033 h / concentration at 0.33 h / concentration at 1 h / concentration at 2 h / concentration at 4 h / concentration at 8 h / concentration at 24 h / AUC(0-t): male, CD1, mouse
# Procedure: The pharmacokinetic (PK) profile in plasma of Compound 1 was determined in male CD1 mice following single dose intravenous (IV) (2 mg/kg) and per os (PO) (10 mg/kg) administration. This study was performed under non-GLP conditions, and unless otherwise stated, all analytical reagents were at least standard laboratory reagent grade, and deionized water was prepared at the study site. The characteristics of Compound 1 used in this study were as follows: molecular weight of base, 710.78; molecular weight of Compound 1 with salt, 824.81; purity on as is basis, 99.28%. All animals were housed in cages with clean bedding and maintained and monitored for good health and at the discretion of the laboratory animal veterinarian. Certified rodent diet was provided, and water was available ad libitum. […] Normal healthy animals certified by the attending veterinarian were selected and acclimatized for a minimum of three days prior to initiation of the study. Animals were identified by body markings. Test animals were weighed prior to drug administration, and the standard weight of the animals used was 30 grams. The animals were divided into two groups, IV group and PO group, with each group containing 3 test animals each and 2 spare animals. The IV dose was administered by intravenous injection into the tail vein and PO dose was administered via oral gavage. The dosing volume was 5 mL/kg body weight for both groups. The dosing concentration was 0.4 mg/mL for the IV group and 2 mg/mL for the PO group. The animals were in fasted state during the study. For both dosing groups, blood was collected from the saphenous vein (serial sampling) for plasma isolation at 0.033, 0.33, 1, 2, 4, 6, 8, and 24 hour timepoints. The anti-coagulant solution used was 6% (v/v) sodium citrate (200 mM, pH 4.79). For sample collection, the mice were restrained, and the back of the hind leg was shaved until the saphenous vein was visible. The hind limb was immobilized, and slight pressure was applied gently above the knee joint. While taking aseptic precautions, the vein was punctured using a 20 G needle and 20-30 μL of blood was collected in pre-labeled pre-chilled tubes. After blood collection from each animal, the sample from that animal was recorded in the sample collection sheet. After collection of each blood sample, the blood sample was stored on ice prior to centrifugation. Blood samples were centrifuged within 0.5 hours of collection to separate plasma. Centrifugation was conducted at 2500×g for 15 minutes at 4° C. The plasma was separated and transferred to pre-labeled micro-centrifuge tubes and promptly frozen at -80° C.±10° C. and stored until bioanalysis was performed. Each sample was identified by test compound, group, animal number, and collection time point. A fit-for-purpose bioanalytical method was developed for analyzing the plasma samples. One set of nine standards was run before the sample batch and was used for plotting the calibration curve. Quality control (QC) samples were prepared at a minimum of three concentrations, i.e., LQC (not more than 5 times to that of lowest standard concentration), HQC (not less than 75% of the highest standard concentration), and MQC (between the low and high concentration). A minimum of 6 QC samples were prepared (three concentrations in duplicate). One set of QC (LQC, MQC and HQC) samples were analyzed before and after the sample batch. Samples were analyzed by Exion AD (Sciex, Framingham, MA, USA) high-pressure liquid chromatography (HPLC) system followed by tandem mass spectroscopy analysis (MS/MS) with Q TRAP 4500 (Sciex, Framingham, MA). The samples were resolved on a Kinetex® EVO C18 4.5*50 mm, 5 μm column (Phenomenex, Inc., Torrance, CA, USA). […] The flow rate was set at 1 mL/min. […] A positive electrospray ionization (ESI) method was used for detecting analytes and internal standard by mass spectroscopy. The MRM conditions were […]
# [3] = mouse, plasma, male CD1 mice, 2 mg/kg IV, Mean
# [4] = mouse, plasma, male CD1 mice, 10 mg/kg PO, Mean
smiles,measurement,setting,value
"COc1cc(-c2cn(C)c(=O)c(C)c2C)cc(OC)c1CN1CC[C@H](N2CCN(c3ccc(N[C@H]4CCC(=O)NC4=O)cc3F)CC2)C(F)(F)C1 [Compound 1, (S)-3-((4-(4-((S)-1-(2,6-dimethoxy-4-(1,4,5-trimethyl-6-oxo-1,6-dihydropyridin-3-yl)benzyl)-3,3-difluoropiperidin-4-yl)piperazin-1-yl)-3-fluorophenyl)amino)-piperidine-2,6-dione]",Comments: form after seeding,"[1]; 2-MeTHF, add Pattern G as seeds, slurry for 5 days",Pattern G
same,Comments,[1]; 2-MeTHF,Clear solution
same,XRPD,[1]; Acetone,Pattern B
same,XRPD,[1]; Ethanol,Pattern F
same,Comments,[1]; Ethyl acetate,Clear solution
same,Comments,[1]; Methanol,Clear solution
same,"Plasma Concentration, individual mice","[2]; 2 mg/kg IV, 0.033 h",1282.85 ng/mL and 1230.25 ng/mL
same,"Plasma Concentration, individual mice","[2]; 2 mg/kg IV, 0.33 h",1069.92 ng/mL and 907.03 ng/mL
same,"Plasma Concentration, individual mice","[2]; 2 mg/kg IV, 1 h",778.91 ng/mL and 554.87 ng/mL
same,"Plasma Concentration, individual mice","[2]; 2 mg/kg IV, 2 h",530.20 ng/mL and 551.12 ng/mL
same,"Plasma Concentration, individual mice","[2]; 2 mg/kg IV, 4 h",402.36 ng/mL and 398.41 ng/mL
same,"Plasma Concentration, individual mice","[2]; 2 mg/kg IV, 8 h",230.84 ng/mL and 279.05 ng/mL
same,"Plasma Concentration, individual mice","[2]; 2 mg/kg IV, 24 h",8.14 ng/mL and 10.81 ng/mL
same,"Plasma Concentration, individual mice","[2]; 10 mg/kg PO, 0.033 h",113.39 ng/mL and 45.23 ng/mL and 29.34 ng/mL
same,"Plasma Concentration, individual mice","[2]; 10 mg/kg PO, 0.33 h",1350.89 ng/mL and 1805.33 ng/mL
same,"Plasma Concentration, individual mice","[2]; 10 mg/kg PO, 1 h",3702.63 ng/mL and 3513.39 ng/mL
same,"Plasma Concentration, individual mice","[2]; 10 mg/kg PO, 2 h",3236.77 ng/mL and 3069.59 ng/mL
same,"Plasma Concentration, individual mice","[2]; 10 mg/kg PO, 4 h",1775.48 ng/mL and 1635.06 ng/mL
same,"Plasma Concentration, individual mice","[2]; 10 mg/kg PO, 8 h",1094.97 ng/mL and 687.92 ng/mL
same,"Plasma Concentration, individual mice","[2]; 10 mg/kg PO, 24 h",40.19 ng/mL and 35.09 ng/mL
same,CI,"[2]; male CD1 mice, 2 mg/kg IV, Mean",6.201 mL/min/kg
same,concentration at 0.033 h,"[2]; plasma, intravenous, 2 mg/kg, 2 mg/kg IV, 0.033 h, read-out: Plasma Concentration, Average",1400 ng/mL
same,concentration at 0.033 h,"[2]; plasma, intravenous, 2 mg/kg, 2 mg/kg IV, 0.033 h, read-out: Plasma Concentration, individual mice",1690 ng/mL
same,concentration at 0.33 h,"[2]; plasma, intravenous, 2 mg/kg, 2 mg/kg IV, 0.33 h, read-out: Plasma Concentration, Average",1090 ng/mL
same,concentration at 0.33 h,"[2]; plasma, intravenous, 2 mg/kg, 2 mg/kg IV, 0.33 h, read-out: Plasma Concentration, individual mice",1300 ng/mL
same,concentration at 1 h,"[2]; plasma, intravenous, 2 mg/kg, 2 mg/kg IV, 1 h, read-out: Plasma Concentration, Average",760 ng/mL
same,concentration at 1 h,"[2]; plasma, intravenous, 2 mg/kg, 2 mg/kg IV, 1 h, read-out: Plasma Concentration, individual mice",947 ng/mL
same,concentration at 2 h,"[2]; plasma, intravenous, 2 mg/kg, 2 mg/kg IV, 2 h, read-out: Plasma Concentration, Average",630 ng/mL
same,concentration at 2 h,"[2]; plasma, intravenous, 2 mg/kg, 2 mg/kg IV, 2 h, read-out: Plasma Concentration, individual mice",809 ng/mL
same,concentration at 4 h,"[2]; plasma, intravenous, 2 mg/kg, 2 mg/kg IV, 4 h, read-out: Plasma Concentration, Average",456 ng/mL
same,concentration at 4 h,"[2]; plasma, intravenous, 2 mg/kg, 2 mg/kg IV, 4 h, read-out: Plasma Concentration, individual mice",567 ng/mL
same,concentration at 8 h,"[2]; plasma, intravenous, 2 mg/kg, 2 mg/kg IV, 8 h, read-out: Plasma Concentration, Average",256 ng/mL
same,concentration at 8 h,"[2]; plasma, intravenous, 2 mg/kg, 2 mg/kg IV, 8 h, read-out: Plasma Concentration, individual mice",257 ng/mL
same,concentration at 24 h,"[2]; plasma, intravenous, 2 mg/kg, 2 mg/kg IV, 24 h, read-out: Plasma Concentration, Average",10.2 ng/mL
same,concentration at 24 h,"[2]; plasma, intravenous, 2 mg/kg, 2 mg/kg IV, 24 h, read-out: Plasma Concentration, individual mice",11.5 ng/mL
same,AUC(0-t),"[2]; plasma, iv, 2 mg/kg, male CD1 mice, 2 mg/kg IV, Mean",5390 ng·h/mL
same,concentration at 0.033 h,"[2]; plasma, oral, 10 mg/kg, 10 mg/kg PO, 0.033 h, read-out: Plasma Concentration, Average",62.7 ng/mL
same,concentration at 0.33 h,"[2]; plasma, oral, 10 mg/kg, 10 mg/kg PO, 0.33 h, read-out: Plasma Concentration, Average",1750 ng/mL
same,concentration at 0.33 h,"[2]; plasma, oral, 10 mg/kg, 10 mg/kg PO, 0.33 h, read-out: Plasma Concentration, individual mice",2100 ng/mL
same,concentration at 1 h,"[2]; plasma, oral, 10 mg/kg, 10 mg/kg PO, 1 h, read-out: Plasma Concentration, Average",3370 ng/mL
same,concentration at 1 h,"[2]; plasma, oral, 10 mg/kg, 10 mg/kg PO, 1 h, read-out: Plasma Concentration, individual mice",2890 ng/mL
same,concentration at 2 h,"[2]; plasma, oral, 10 mg/kg, 10 mg/kg PO, 2 h, read-out: Plasma Concentration, Average",3150 ng/mL
same,concentration at 2 h,"[2]; plasma, oral, 10 mg/kg, 10 mg/kg PO, 2 h, read-out: Plasma Concentration, individual mice",3150 ng/mL
same,concentration at 4 h,"[2]; plasma, oral, 10 mg/kg, 10 mg/kg PO, 4 h, read-out: Plasma Concentration, Average",1770 ng/mL
same,concentration at 4 h,"[2]; plasma, oral, 10 mg/kg, 10 mg/kg PO, 4 h, read-out: Plasma Concentration, individual mice",1880 ng/mL
same,concentration at 8 h,"[2]; plasma, oral, 10 mg/kg, 10 mg/kg PO, 8 h, read-out: Plasma Concentration, Average",983 ng/mL
same,concentration at 8 h,"[2]; plasma, oral, 10 mg/kg, 10 mg/kg PO, 8 h, read-out: Plasma Concentration, individual mice",1170 ng/mL
same,concentration at 24 h,"[2]; plasma, oral, 10 mg/kg, 10 mg/kg PO, 24 h, read-out: Plasma Concentration, Average",37.8 ng/mL
same,concentration at 24 h,"[2]; plasma, oral, 10 mg/kg, 10 mg/kg PO, 24 h, read-out: Plasma Concentration, individual mice",38.2 ng/mL
same,AUC(0-t),"[2]; plasma, po, 10 mg/kg, male CD1 mice, 10 mg/kg PO, Mean, first AUClast column",20000 ng·h/mL
same,AUC(0-t),"[2]; plasma, po, 10 mg/kg, male CD1 mice, 10 mg/kg PO, Mean, second AUClast column",20200 ng·h/mL
same,AUC(0-inf),[2]; [3],5450 ng·h/mL
same,C0,[2]; [3],1440 ng/mL
same,MRT last,[2]; [3],5.15 h
same,half-life,[2]; [3],3.65 h
same,Vd,"[2]; mouse, plasma, male CD1 mice, 2 mg/kg IV, Mean, read-out: Vdss",2.01 L/kg
same,Cmax,[2]; [4],3460 ng/mL
same,MRT last,[2]; [4],5.38 h
same,Tmax,[2]; [4],1.33 h
same,bioavailability,[2]; [4],74.1%
same,half-life,[2]; [4],3.54 h
